# In PMC4924691, “Inhibition of the p53/hDM2 protein-protein interaction by cyclometallated iridium(III) compounds” (Oncotarget, 2016):
# Columns and labels:
# p53/hDM2 interaction [1] = tested on: T1, p53/hDM2 interaction; test: Pull-down assay of p53-Flag/hDM2-myc in A375 cells; assay type: cell-based, human; settings: for effect of isolated ligands on the p53/hDM2 interaction: Supplementary Figure S4; for amount of precipitated hDM2 (pulled down with p53-Flag): 6 h of treatment
# T1 construct: host or cells: A375 cells
# Experimental: A pull-down assay was conducted to further examine the effect of 1 on the p53/hDM2 interaction. A375 cells were co-transfected with cDNAs encoding p53-Flag and hDM2-myc fusion proteins. After 6 h of treatment with NVP-CGM097 or 1, p53/hDM2 complexes were immunoprecipitated using anti-Flag magnetic beads and analysed by immunoblotting.
# A375 cells seeded in 6-well plates were co-transfected with pcDNA-Flag-p53 (Addgene) and pCMV-myc3-hDM2 (Addgene) for 6 h using TurboFect transfection reagent following the instruction from manufacturer. Cells were then cultured in Dulbecco's Modified Eagle's Medium (DMEM) complete medium overnight. Serial dilutions of organometallic compounds in low FBS buffer were placed into the wells, and incubated with cells for additional 6 h. Protein samples were collected, and the concentration in the supernatant was determined with the bicinchoninic acid (BCA) method. The […] of p53/hDM2 in the protein samples were pulled down using anti-Flag magnetic beads to capture the FLAG fusion proteins (Sigma) as previously described. The protein-binding beads were washed three time with TBS buffer (50 mM Tris HCl, 150 mM NaCl, pH 7.4) to remove non-specifically bound proteins, and subsequently subjected to the sodium dodecyl sulfate-polyacrylamide gel electrophoresis (SDS-PAGE) by detection with anti-Flag (1:1000, Sigma-Aldrich) and anti-myc antibodies (1:1000, Beyotime).
# [2] = tested on: p53 and hDM2 protein expression levels; test: Immunoblotting of p53 and hDM2 protein expression in A375 cells; assay type: cell-based, human; settings: for effect on hDM2 and p53 protein expression levels: 6 h, up to the highest concentration of 1 μM
# Experimental: To assess whether 1 suppressed p53 or hDM2 protein expression levels, resulting in a decrease in the levels of precipitated protein detected in the pull-down assay, an immunoblotting experiment was performed.
# p53/hDM2 interaction [3] = molecular target: T2, p53/hDM2 interaction (Homo sapiens, UniProt Q00987); test: Fluorescence anisotropy (FA) assay, displacement of p53_15–31Flu from hDM2_17–126; assay type: binding; settings: for IC50 / IC50 against the p53/hDM2 interaction as determined by a FA assay: 150 nM hDM2_17–126, 50 nM p53_15–31Flu, 30 min, room temperature; for IC50: read-out: IC50 against the p53/hDM2 interaction as determined by a FA assay; for effect on fluorescence anisotropy / p53/hDM2 interaction: serial dilutions of compound, hDM2_17–126 with p53_15–31Flu
# T2 construct: Expression of hDM2_17–126 recombinant fragment was performed as described previously; made in house
# Experimental: To experimentally test the library of the organo-metallic iridium(III) compounds as p53/hDM2 PPI inhibitors, a fluorescence anisotropy (FA) assay was performed as previously described. hDM2_17–126 (recombinant fragment) was incubated with fluorescein-labelled p53 peptide (p53_15–31Flu) and serial dilutions of the organometallic iridium(III) compounds.
# Figure 2 FA titration data of 1 1 was incubated with 150 nM hDM2_17–126 recombinant fragment and 50 nM fluorescein-labelled p53 peptide (p53_15–31Flu), and fluorescence anisotropy was measured at 480ex/535em.
# Expression of hDM2_17–126 recombinant fragment was performed as described previously. Fluorescence anisotropy assays were used to study the displacement of p53 from hDM2 by organometallic compounds. The experiments were performed in triplicate in a volume of 60 μL of the assay buffer (40 mM Na3PO4, pH 7.50, 200 mM NaCl, 0.02 mg/mL BSA) in black flat-bottom 384-well plates. Different concentrations of organometallic compounds were diluted in the assay buffer containing 150 nM hDM2 and 50 nM p53_15–31Flu (Ac-[…](Flu)-NH2, Peptide Protein Research Ltd.) and incubated at room temperature for 30 min. The intensity and anisotropy was monitored at 480ex/535em ([…] bandwidth) using a Perkin Elmer EnvisionTM 2103 MultiLabel plate reader. The data was analyzed according to published methods.
# GADD45α, PUMA, p21 = settings: A375 cells
# Experimental: (§1) Transactivation of p53 restricts cellular proliferation by inducing apoptosis and cycle arrest. Therefore, a terminal deoxynucleotidyl transferase (TdT)-mediated dUTP nick and labelling (TUNEL) and Hoechst staining assay were then performed to investigate DNA fragmentation, a hallmark of apoptosis, in apoptotic cells. […] Finally, the effect of 1 on caspase-3/7, an apoptotic executioner under the control of p53, was investigated in A375 cells using a homogeneous luminescence assay.
# A375 cells seeded in 6-well plates were treated with vehicle, NVP-CGM097 or different concentrations of 1 for 6 h. Cells were then harvested and the quantity of each protein samples was measured by the BCA method. Same aliquot (30 μg) of each protein sample was separated by SDS-PAGE according to the reported procedure of immunoblotting. The signals were visualized using Enhanced chemiluminescent Plus reagents (GE Healthcare) and analyzed by Image Lab. The primary antibodies used were: anti-PUMA (1:500, Santa Cruz), anti-GADD45α (1:500, Santa Cruz), anti-p21 (1:500, Santa Cruz), anti-GAPDH (1:500, Santa Cruz), anti-p53 (1:500, Santa Cruz) and anti-hDM2 antibodies (1:500, Santa Cruz).
# A375 cells = settings: 0.3 μM, 6 h
# Experimental: as §1
# caspase-3/7 = settings: A375 cells, 6 h, dose-dependent
# Experimental: as §1
# A2780 = settings: read-out: IC50 (MTT), A2780; human ovarian carcinoma, p53 wt, 72 h
# Experimental: (§2) The cytotoxicity of 1 towards ten cancers cell lines with different p53 statuses (wt, mut or null) was subsequently examined assessed using the MTT assay (Supplementary Table S2).
# (§3) Inhibition of cell growth was measured using the MTT reagent (3-(4, 5-dimethylthiazol-2-yl)-2, 5-diphenyltetrazolium bromide). Different cell lines with variable expression levels of p53 protein (A375, A549, HeLa, A2780, A431, MCF7, MD-MBA-231, MD-MBA-468, T47D and H1299 cell lines) were plated onto 96-well plates at a density of 4, 000 cells/well overnight prior to the addition of 1 at different concentrations ranging from 0.01–100 μM for a further 72 h. 10 μL MTT reagent (5 mg/mL) was added to the wells and the cells were incubated for an additional 4 h before 100 μL of DMSO was added to the wells. The absorbance of each well was read on a SpectraMax M5 microplate reader (Molecular Devices) at the wavelength of 570 nm.
# A375 = settings: read-out: IC50 (MTT), A375; human malignant melanoma, p53 wt, 72 h
# Experimental: as §2, §3
# A431 = settings: read-out: IC50 (MTT), A431; human colon carcinoma (so in the source), p53 wt, 72 h
# Experimental: as §2, §3
# A549 = settings: read-out: IC50 (MTT), A549; human lung carcinoma, p53 wt, 72 h
# Experimental: as §2, §3
# H1299 = settings: read-out: IC50 (MTT), H1299; human lung carcinoma, p53 null, 72 h
# Experimental: as §2, §3
# HeLa = settings: read-out: IC50 (MTT), HeLa; human cervix carcinoma, p53 wt, 72 h
# Experimental: as §2, §3
# MCF7 = settings: read-out: IC50 (MTT), MCF7; human breast carcinoma, p53 wt, 72 h
# Experimental: as §2, §3
# MD-MBA-231 = settings: read-out: IC50 (MTT), MD-MBA-231; human breast carcinoma, p53 mut, 72 h
# Experimental: as §2, §3
# MD-MBA-468 = settings: read-out: IC50 (MTT), MD-MBA-468; human breast carcinoma, p53 mut, 72 h
# Experimental: as §2, §3
# T47D = settings: read-out: IC50 (MTT), T47D; human breast carcinoma, p53 mut, 72 h
# Experimental: as §2, §3
# [4] = 298 K
# Source text: (1 picture or pasted object on this page, not shown here) […]
# p53/hDM2 PPI = p53/hDM2 PPI (Homo sapiens, UniProt Q00987); settings: read-out: IC50, decrease of BRET (p53-HaloTag / NanoLuc-hDM2); A375 cells, 6 h
# [5] = tested on: p53-driven luciferase activity; settings: A375 cells carrying endogenous wt p53, 6 h
# [6] = molecular target: T3, hDM2(17-126) recombinant fragment (human, UniProt Q00987 17-126); test: fluorescence polarisation; fluorescence anisotropy competition: 150 nM hDM2(17-126) and 50 nM p53(15-31)Flu with serial dilutions of iridium(III) compounds; 40 mM Na3PO4 pH 7.50, 200 mM NaCl, 0.02 mg/mL BSA; room temperature, 30 min; 480ex/535em; settings: both partners purified
# T3 construct: human double minute 2 protein (hDM2, MDM2), human, residues 17-126; also called human double minute 2 protein; source: recombinant fragment, expressed as described previously [33]
molecule,measurement,setting,value
"CCc1ccc(-c2ccccn2)cc1 [eppy, 2-(4-ethylphenyl)pyridine]",effect of isolated ligands on the p53/hDM2 interaction,p53/hDM2 interaction [1],Neither eppy nor dcphen ligands were found to have a significant effect
same,effect on hDM2 and p53 protein expression levels,[2],Neither eppy nor dcphen ligands were found to have a significant effect
"Clc1ccnc2c1ccc1c(Cl)ccnc12 [dcphen, 4,7-dichloro-1, 10-phenanthroline]",effect of isolated ligands on the p53/hDM2 interaction,p53/hDM2 interaction [1],Neither eppy nor dcphen ligands were found to have a significant effect
same,effect on hDM2 and p53 protein expression levels,[2],Neither eppy nor dcphen ligands were found to have a significant effect
"Clc1cc2nc3c4cccnc4c4ncccc4c3nc2cc1Cl.F[P-](F)(F)(F)(F)F.Fc1c[c-]c(-c2ccccn2)c(F)c1.Fc1c[c-]c(-c2ccccn2)c(F)c1.[Ir+3] [Compound 6, 11, 12-dichlorodipyrido[3,2-a:2′,3′-c]phenazinebis(2-(2,4-difluorophenyl)pyridine)iridium(III) hexafluorophosphate]",IC50,p53/hDM2 interaction [3],33000 nM
same,effect on fluorescence anisotropy / p53/hDM2 interaction,p53/hDM2 interaction [3],decreased significantly
"Clc1cc2ccc[n+]3c2c2c1ccc[n+]2[Ir-3]312([c]3ccccc3-c3sc4ccccc4[n+]31)[c]1ccccc1-c1sc3ccccc3[n+]12.F[P-](F)(F)(F)(F)F [Compound 4, 5-chloro-1, 10-phenanthrolinebis(2-phenylbenzo[d]thiazole)iridium(III) hexafluorophosphate]",IC50 against the p53/hDM2 interaction as determined by a FA assay,p53/hDM2 interaction [3],No noticeable binding
same,effect on fluorescence anisotropy / p53/hDM2 interaction,p53/hDM2 interaction [3],no noticeable effect
"F[P-](F)(F)(F)(F)F.[Ir+3].[c-]1ccccc1-n1cccn1.[c-]1ccccc1-n1cccn1.c1ccc(-c2ccccn2)nc1 [Compound 3, 2, 2′-bipyridinebis(1-phenyl-1H-pyrazole)iridium(III) hexafluorophosphate]",IC50 against the p53/hDM2 interaction as determined by a FA assay,p53/hDM2 interaction [3],No noticeable binding
same,effect on fluorescence anisotropy / p53/hDM2 interaction,p53/hDM2 interaction [3],no noticeable effect
"COc1cc2c(cc1OC(C)C)[C@H](c1ccc(Cl)cc1)N(c1ccc(N(C)C[C@H]3CC[C@H](N4CCN(C)C(=O)C4)CC3)cc1)C(=O)C2 [NVP-CGM097, reference compound]",amount of precipitated hDM2 (pulled down with p53-Flag),p53/hDM2 interaction [1],decreased
same,expression of hDM2 protein,[2]; 1 μM,significantly increased
"F[P-](F)(F)(F)(F)F.c1cc[c]2c(c1)-c1ccc3ccccc3[n+]1[Ir-3]213([c]2ccccc2-c2ccc4ccccc4[n+]21)[n+]1cccc2c4nccnc4c4ccc[n+]3c4c21 [Compound 5, pyrazino[2,3-f][1, 10]phenanthrolinebis(2-phenylquinoline)iridium(III) hexafluorophosphate]",IC50,p53/hDM2 interaction [3],21000 nM
same,effect on fluorescence anisotropy / p53/hDM2 interaction,p53/hDM2 interaction [3],decreased significantly
"CCc1ccc2[c](c1)[Ir-3]13([c]4cc(CC)ccc4-c4cccc[n+]41)([n+]1ccccc1-2)[n+]1ccc(Cl)c2ccc4c(Cl)cc[n+]3c4c21.F[P-](F)(F)(F)(F)F [Compound 1, 4,7-dichloro-1, 10-phenanthrolinebis(2-(4-ethylphenyl)pyridine)iridium(III) hexafluorophosphate]",IC50,p53/hDM2 interaction [3],16000 nM
same,effect on fluorescence anisotropy / p53/hDM2 interaction,p53/hDM2 interaction [3],decreased significantly
same,amount of precipitated hDM2 (pulled down with p53-Flag),p53/hDM2 interaction [1],decreased
same,effect on hDM2 and p53 protein expression levels,[2],no effect
same,expression of GADD45α,"GADD45α, PUMA, p21",significantly increased
same,expression of PUMA,"GADD45α, PUMA, p21",significantly increased
same,expression of p21,"GADD45α, PUMA, p21",induced
same,DNA fragmentation (TUNEL),A375 cells,induce DNA fragmentation
same,caspase-3/7 activities,caspase-3/7,significantly activate
same,IC50,A2780,495 ± 32 nM
same,IC50,A375,647 ± 35.4 nM
same,IC50,A431,416 ± 37.4 nM
same,IC50,A549,232 ± 21.8 nM
same,IC50,H1299,2200 ± 38.3 nM
same,IC50,HeLa,480 ± 44.7 nM
same,IC50,MCF7,547 ± 41 nM
same,IC50,MD-MBA-231,835 ± 42.9 nM
same,IC50,MD-MBA-468,1890 ± 23.3 nM
same,IC50,T47D,783 ± 483 nM
same,time stable in solution (UV-Vis),"[4]; 80% acetonitrile/20% Tris-HCl buffer, 20 μM",at least 7 days
same,time stable in solution (1H NMR),"[4]; 90% [d6] DMSO/10% D2O, 5 mM",at least 7 days
same,IC50,p53/hDM2 PPI,~1000 nM
same,p53-dependent luciferase activity,[5],increase
"SQETFSDLWKLLPENNVC (N-terminal acetyl (Ac-); fluorescein on the C-terminal cysteine, C(Flu); C-terminal amide (-NH2), added C-terminal cysteine that carries the fluorescein; not part of p53 15-31; source: synthetic peptide, bought: Peptide Protein Research Ltd) [fluorescein-labelled p53 peptide (p53 15-31 Flu)]",binding result,[6],binds
